For 39 molecules, IC50 results are on record in patent publication US20240299385A1 (ReWind Therapeutics NV, priority 2021, published 2024).

Usually IC50 stands for the midpoint of a concentration-inhibition curve.

The assay concerns the target T1, human GPR17 receptor (Homo sapiens, UniProt Q13304).
T1 construct: host or cells: HEK-293
The experiment in a line: Calcium mobilization functional assay (Fluo-8, FLIPR TETRA) in HEK-293 hGPR17 (Gα-q assay). The class given is cell-based. Conditions: antagonism of MDL29,951 (~EC80) induced Ca2+ signal; cell line (HEK-293 hGPR17 or HEK-293 Suchi5 hGPR17) not given. Summed up: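 Fluo-8-loaded HEK-293 hGPR17 cells (60 min dye loading, room temperature) were preincubated with compound for twenty minutes, then challenged with agonist MDL29,951 at ~EC80, 500 nM. Intracellular calcium release via Gα-q was recorded as FLIPR fluorescence for a further 2 minutes; compounds tested in duplicate.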
(In general: A change in cytosolic calcium serves as a functional read-out for many receptors and channels.)

T1 sequence (Q13304 whole entry): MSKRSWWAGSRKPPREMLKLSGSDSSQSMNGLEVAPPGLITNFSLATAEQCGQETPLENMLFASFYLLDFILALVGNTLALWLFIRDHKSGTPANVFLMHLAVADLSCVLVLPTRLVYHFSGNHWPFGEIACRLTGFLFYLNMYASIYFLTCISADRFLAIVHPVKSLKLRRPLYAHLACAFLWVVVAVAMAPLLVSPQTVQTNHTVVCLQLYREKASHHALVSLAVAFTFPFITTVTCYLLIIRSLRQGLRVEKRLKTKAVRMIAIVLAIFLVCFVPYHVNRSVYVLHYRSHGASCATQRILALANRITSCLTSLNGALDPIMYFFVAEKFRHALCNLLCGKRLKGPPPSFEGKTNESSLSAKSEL

Regarding `O=S(=O)(Nc1cc(F)c(OC(F)F)cc1F)c1c[nH]c(-c2ccccc2F)c1` [Cpd 409, N-[4-(difluoromethoxy)-2,5-difluorophenyl]-5-(2-fluorophenyl)-1H-pyrrole-3-sulfonamide], the concentration for half-maximal inhibition (IC50) is less than 500 nM. For `O=S(=O)(Nc1cc(F)c(OC(F)F)cc1F)c1c[nH]c(-c2cc(Cl)ccc2F)c1` [Cpd 410, 5-(5-chloro-2-fluorophenyl)-N-[4-(difluoromethoxy)-2,5-difluorophenyl]-1H-pyrrole-3-sulfonamide], the IC50 was in the range of 500 to 5000 nM. Under `O=S(=O)(Nc1cc(F)c(OC(F)F)cc1F)c1c[nH]c(-c2ccc(F)cc2)c1` [Cpd 411, N-[4-(difluoromethoxy)-2,5-difluorophenyl]-5-(4-fluorophenyl)-1H-pyrrole-3-sulfonamide] stands 500 to 5000 nM; under `O=S(=O)(Nc1cc(F)c(OC(F)F)cc1F)c1c[nH]c(-c2ccc(F)cc2F)c1` [Cpd 412, N-[4-(difluoromethoxy)-2,5-difluorophenyl]-5-(2,4-difluorophenyl)-1H-pyrrole-3-sulfonamide], 500 to 5000 nM; under `O=S(=O)(Nc1cc(F)c(Br)cc1F)c1c[nH]c(-c2ccccc2F)c1` [Cpd 413, N-(4-bromo-2,5-difluorophenyl)-5-(2-fluorophenyl)-1H-pyrrole-3-sulfonamide], less than 500 nM. In the case of `O=S(=O)(Nc1cc(F)c(Br)cc1F)c1c[nH]c(-c2cc(Cl)ccc2F)c1` [Cpd 414, N-(4-bromo-2,5-difluorophenyl)-5-(5-chloro-2-fluorophenyl)-1H-pyrrole-3-sulfonamide], the concentration for half-maximal inhibition (IC50) lay within 500 to 5000 nM. Under `N#CCOc1cc(F)c(NS(=O)(=O)c2c[nH]cc2Cc2ccccc2)cc1F` [Cpd 415, 4-benzyl-N-[4-(cyanomethoxy)-2,5-difluorophenyl]-1H-pyrrole-3-sulfonamide] stands 500 to 5000 nM; under `N#Cc1cc(F)c(NS(=O)(=O)c2c[nH]cc2Cc2cccs2)cc1F` [Cpd 416, N-(4-cyano-2,5-difluorophenyl)-4-(thiophen-2-ylmethyl)-1H-pyrrole-3-sulfonamide], less than 500 nM.

`O=S(=O)(Nc1cc(F)c(Br)cc1F)c1c[nH]cc1Cc1cccs1` [Cpd 417, N-(4-bromo-2,5-difluorophenyl)-4-(thiophen-2-ylmethyl)-1H-pyrrole-3-sulfonamide]: the half-inhibitory concentration (IC50) is 500 to 5000 nM. For `O=S(=O)(Nc1cc(F)c(C(F)(F)F)cc1F)c1c[nH]cc1Cc1cccs1` [Cpd 418, N-[2,5-difluoro-4-(trifluoromethyl)phenyl]-4-(thiophen-2-ylmethyl)-1H-pyrrole-3-sulfonamide] the value was less than 500 nM; for `O=S(=O)(Nc1cc(OC(F)F)c(Cl)cc1F)c1c[nH]c(-c2ccccn2)c1` [Cpd 419, N-[4-chloro-5-(difluoromethoxy)-2-fluorophenyl]-5-pyridin-2-yl-1H-pyrrole-3-sulfonamide], 500 to 5000 nM; for `Cc1ccc(-c2c[nH]cc2S(=O)(=O)Nc2ccc(C#N)cc2F)s1` [Cpd 420, N-(4-cyano-2-fluorophenyl)-4-(5-methylthiophen-2-yl)-1H-pyrrole-3-sulfonamide], less than 500 nM. For `N#Cc1ccc(NS(=O)(=O)c2c[nH]c(C3CCCCC3)c2)c(F)c1` [Cpd 421, N-(4-cyano-2-fluorophenyl)-5-cyclohexyl-1H-pyrrole-3-sulfonamide], the IC50 fell in the range of 500 to 5000 nM.

Take `COc1nc(Cl)c(F)cc1NS(=O)(=O)c1c[nH]c(-c2ccccc2)c1` [Cpd 422, N-(6-chloro-5-fluoro-2-methoxypyridin-3-yl)-5-phenyl-1H-pyrrole-3-sulfonamide]: the half-maximal inhibitory concentration (IC50) was less than 500 nM. Under `O=S(=O)(Nc1cc(F)c(C(F)(F)F)cc1F)c1c[nH]c(C2CCCCC2)c1` [Cpd 423, 5-cyclohexyl-N-[2,5-difluoro-4-(trifluoromethyl)phenyl]-1H-pyrrole-3-sulfonamide] stands 500 to 5000 nM. Under `O=S(=O)(Nc1cc(F)c(C(F)(F)F)cc1F)c1c[nH]c(C2CCOC2)c1` (stereo not drawn) [Cpd 424, N-[2,5-difluoro-4-(trifluoromethyl)phenyl]-5-(oxolan-3-yl)-1H-pyrrole-3-sulfonamide] stands 500 to 5000 nM; under `O=S(=O)(Nc1cc(OC(F)F)c(Cl)cc1F)c1c[nH]cc1-c1cccc(F)c1` [Cpd 425, N-[4-chloro-5-(difluoromethoxy)-2-fluorophenyl]-4-(3-fluorophenyl)-1H-pyrrole-3-sulfonamide], 500 to 5000 nM. Under `O=S(=O)(Nc1cc(OC(F)F)c(Cl)cc1F)c1c[nH]cc1Cc1ccccc1` [Cpd 426, 4-benzyl-N-[4-chloro-5-(difluoromethoxy)-2-fluorophenyl]-1H-pyrrole-3-sulfonamide] stands 500 to 5000 nM.

Turning to `COc1nc(Cl)c(F)cc1NS(=O)(=O)c1c[nH]cc1Cc1ccccc1` [Cpd 427, 4-benzyl-N-(6-chloro-5-fluoro-2-methoxypyridin-3-yl)-1H-pyrrole-3-sulfonamide], the IC50 was in the range of 500 to 5000 nM. For `COc1nc(Cl)c(F)cc1NS(=O)(=O)c1c[nH]cc1-c1cccc(F)c1` [Cpd 428, N-(6-chloro-5-fluoro-2-methoxypyridin-3-yl)-4-(3-fluorophenyl)-1H-pyrrole-3-sulfonamide] the value was 500 to 5000 nM. For `COc1cc(OC(F)F)cnc1NS(=O)(=O)c1c[nH]c(-c2ccccc2)c1` [Cpd 429, N-[5-(difluoromethoxy)-3-methoxypyridin-2-yl]-5-phenyl-1H-pyrrole-3-sulfonamide] the value was 500 to 5000 nM; for `O=S(=O)(Nc1cc(F)c(C(F)(F)F)cc1F)c1c[nH]c(C2CCC2)c1` [Cpd 430, 5-cyclobutyl-N-(2,5-difluoro-4-(trifluoromethyl)phenyl)-1H-pyrrole-3-sulfonamide], less than 500 nM; for `COc1nc(Br)cnc1NS(=O)(=O)c1c[nH]cc1Cc1ccccc1` [Cpd 431, 4-benzyl-N-(5-bromo-3-methoxypyrazin-2-yl)-1H-pyrrole-3-sulfonamide], 5000 to 50000 nM. For `O=S(=O)(Nc1ncc(OCC(F)F)cc1F)c1c[nH]cc1Cc1ccccc1` [Cpd 432, 4-benzyl-N-[5-(2,2-difluoroethoxy)-3-fluoropyridin-2-yl]-1H-pyrrole-3-sulfonamide] the value was 500 to 5000 nM; for `COc1cc(OC(F)F)cnc1NS(=O)(=O)c1c[nH]cc1Cc1ccccc1` [Cpd 433, 4-benzyl-N-[5-(difluoromethoxy)-3-methoxypyridin-2-yl]-1H-pyrrole-3-sulfonamide], 5000 to 50000 nM; for `O=S(=O)(Nc1ncc(OCC(F)F)cc1F)c1c[nH]c(-c2ccccc2)c1` [Cpd 434, N-[5-(2,2-difluoroethoxy)-3-fluoropyridin-2-yl]-5-phenyl-1H-pyrrole-3-sulfonamide], 500 to 5000 nM.

On to `COc1nc(Br)cnc1NS(=O)(=O)c1c[nH]c(-c2ccccc2)c1` [Cpd 435, N-(5-bromo-3-methoxypyrazin-2-yl)-5-phenyl-1H-pyrrole-3-sulfonamide], for which the IC50 was in the range of 500 to 5000 nM. Under `COc1nc(OCC(F)F)c(F)cc1NS(=O)(=O)c1c[nH]c(-c2ccccc2)c1` [Cpd 436, N-[6-(2,2-difluoroethoxy)-5-fluoro-2-methoxypyridin-3-yl]-5-phenyl-1H-pyrrole-3-sulfonamide] stands less than 500 nM; under `N#Cc1ccc(NS(=O)(=O)c2c[nH]cc2-c2cccnc2)c(F)c1` [Cpd 437, N-(4-cyano-2-fluorophenyl)-4-(pyridin-3-yl)-1H-pyrrole-3-sulfonamide], 5000 to 50000 nM. For `O=S(=O)(Nc1ncc(OCC(F)F)cc1F)c1c[nH]cc1-c1cccc(F)c1` [Cpd 438, N-[5-(2,2-difluoroethoxy)-3-fluoropyridin-2-yl]-4-(3-fluorophenyl)-1H-pyrrole-3-sulfonamide] the value was 5000 to 50000 nM; for `N#Cc1cc(F)c(NS(=O)(=O)c2c[nH]cc2Cc2ccccc2)cc1Cl` [Cpd 439, 4-benzyl-N-(5-chloro-4-cyano-2-fluorophenyl)-1H-pyrrole-3-sulfonamide], less than 500 nM; for `Cc1cc(NS(=O)(=O)c2c[nH]cc2Cc2ccccc2)c(F)cc1C#N` [Cpd 440, 4-benzyl-N-(4-cyano-2-fluoro-5-methylphenyl)-1H-pyrrole-3-sulfonamide], less than 500 nM. On to `N#Cc1ccc(NS(=O)(=O)c2c[nH]c(-c3ccoc3)c2)c(F)c1` [Cpd 441, N-(4-cyano-2-fluorophenyl)-5-(furan-3-yl)-1H-pyrrole-3-sulfonamide], for which the IC50 is less than 500 nM.

Turning to `N#Cc1ccc(NS(=O)(=O)c2c[nH]c(-c3cccc4ccoc34)c2)c(F)c1` [Cpd 442, 5-(1-benzofuran-7-yl)-N-(4-cyano-2-fluorophenyl)-1H-pyrrole-3-sulfonamide], the 50% inhibitory concentration (IC50) is less than 500 nM.

For `N#Cc1ccc(NS(=O)(=O)c2c[nH]c(-c3cccc4c3OCC4)c2)c(F)c1` [Cpd 443, N-(4-cyano-2-fluorophenyl)-5-(2,3-dihydro-1-benzofuran-7-yl)-1H-pyrrole-3-sulfonamide], the 50% inhibitory concentration (IC50) is less than 500 nM. Under `COc1nc(OCC(F)F)c(F)cc1NS(=O)(=O)c1c[nH]cc1Cc1ccccc1` [Cpd 444, 4-benzyl-N-[6-(2,2-difluoroethoxy)-5-fluoro-2-methoxypyridin-3-yl]-1H-pyrrole-3-sulfonamide] stands 500 to 5000 nM.

As for `N#Cc1ccc(NS(=O)(=O)c2c[nH]c(-c3ccco3)c2)c(F)c1` [Cpd 445, N-(4-cyano-2-fluorophenyl)-5-(furan-2-yl)-1H-pyrrole-3-sulfonamide], the IC50 was less than 500 nM. For `O=S(=O)(Nc1cc(F)c(Br)cc1F)c1c[nH]c(-c2ccc(F)cc2)c1` [Cpd 446, N-(4-bromo-2,5-difluorophenyl)-5-(4-fluorophenyl)-1H-pyrrole-3-sulfonamide] the value was 500 to 5000 nM. For `O=S(=O)(Nc1cc(F)c(Br)cc1F)c1c[nH]c(-c2ccc(F)cc2F)c1` [Cpd 447, N-(4-bromo-2,5-difluorophenyl)-5-(2,4-difluorophenyl)-1H-pyrrole-3-sulfonamide] the value was 500 to 5000 nM.
